Marks after values point to notes of the source that are not given here.
Tests used:
peritoneal macrophages [1] = assay: NBT reduction assay in peritoneal macrophages, cyclophosphamide-induced immunosuppression (Example II); format: in vivo, Swiss albino mice; details: for OD (515 nm), NBT reduction assay in peritoneal macrophages: 10 mg/kg body weight p.o. 7 days + cyclophosphamide 250 mg/kg i.p., Mean ± SD, n = 6; for improvement in NBT reduction capacity: 10 mg/kg body weight p.o., in comparison with cyclophosphamide treated mice
Protocol: (§1) The mice were acclimatized for one week in the laboratory conditions, before being used in the experiment. All experiments were conducted between 10.00 hr and 14.00 hr. Principles of laboratory animal care (NIH publication no. 85-23, revised 1985) were followed.
(§2) All test compounds (DBPs and DBP glycosides) were suspended in 0.3% of CMC (Carboxymethyl Cellulose) solutions of distilled water and were administered orally for 7 days by using an intubation canula. The volume of dose was 100 μl/10 g body weight. Cyclophosphamide was dissolved in distilled water and was injected (250 mg/kg, i.p.) on day one and volume of dose was 100 μl/10 g body weight. Control animals received equivalent volume of the vehicles CMC (0.3%) solutions only.
On day seven all the animals were sacrificed under ether anesthesia and peritoneal macrophages were lavaged using ice cold phosphate buffer saline (PBS: 0.15M NaCl pH-7.4). After centrifugation (3000 rpm×10 min) at 4° C. the pellet was re-suspended in PBS and cell viability was confirmed by trypan blue exclusion method. (Bala A, Haldar P K, Kar B, Naskar S and Mazumder U K, “Carbon tetrachloride: A hepatotoxin causes oxidative stress in murine peritoneal macrophage and peripheral blood lymphocyte cells” Immunopharmacol. and Immunotoxicol. 34(1): 157-162 (2012)).
Preparation of NBT solution: 0.2% NBT (nitroblue tetrazolium) in PB (Phosphate Buffer, pH 7.4), 5% dextrose and HBSS (Hank's balanced salt solution). The three solutions were mixed in 6:2:4 ratios. (Saxena A K, Singh K P, Srivastava S N, Shukla L J and Shanker R., “Immunomodulating effects of caffeine in rodents” Ind J Exptl Biol. 22: 298-301 (1984)).
Method: 0.5 ml of NBT solution was added to 0.5 ml of peritoneal macrophages (1×10^6 cells/ml) in a micro-centrifuge tube. This mixture was incubated at 37° C. for 45 minutes. The cell suspension was centrifuged at 1500 rpm for 10 minutes. Supernatant was discarded and pellet was re-suspended in 2 ml of DMSO. The tubes were kept in a boiling water bath for 10 minutes. The tubes were again centrifuged at 1500 rpm for 10 minutes. The supernatant was collected, and absorbance was measured at 515 nm.

splenocytes [2] = assay: Cell viability of splenocytes, trypan blue exclusion, cyclophosphamide-induced immunosuppression (Example II); format: in vivo, Swiss albino mice; details: for % Cell Viability of splenocytes: 10 mg/kg body weight p.o. 7 days + cyclophosphamide 250 mg/kg i.p., Mean ± SD, n = 6
Protocol: as §1, §2
Spleen was collected. Single cell suspension was prepared by mincing and tapping the spleen fragments on stainless steel 200-mesh in ice cold phosphate buffer saline (PBS: 0.15M NaCl pH 7.4). Cell suspension was centrifuged at 2000 rpm for 10 minutes. The pellet was re-suspended in PBS and cell viability was confirmed by trypan blue exclusion method.

Swiss albino mice = assay: Cyclophosphamide-induced immunosuppression in mice, overall conclusion (Example II); format: in vivo; details: treatment for 7 days at 10 mg/kg body weight (p.o.)
Protocol: All experiments were conducted between 10.00 hr and 14.00 hr. […] Control animals received equivalent volume of the vehicles CMC (0.3%) solutions only.

[3] = mouse, in vivo
Protocol: (§3) Male and female Swiss albino mice (n=8; 4 from each gender) weighing approximately 25±5 g, were obtained from National Research Institute of Ayurveda for Drug Development (Govt. of India), Kolkata, and were housed in polypropylene cages at 22±3° C., relative air humidity of 45 to 55%, with 12.00 h light & dark cycle (lighting on from 6:00 AM to 6:00 PM). […] The mice were acclimatized for one week in the laboratory conditions, before being used in the experiment. All experiments were conducted between 10.00 h and 14.00 h. Principles of laboratory animal care (NIH publication no. 85-23, revised 1985) was followed.
(§4) Cyclophosphamide was dissolved in distilled water and the mice were administered a single exposure (250 mg/kg, i.p.) on day 1.
(§5) 3-OH-DBP, 3,8-(OH)2-DBP, and combined 3-OH-DBP+3,8-(OH)2-DBP were administered once daily for 7 days starting from day 1. Following 7 days of treatment the mice were anaesthetized and sacrificed under anaesthesia followed by collection of peritoneal macrophages and spleen (for splenocyte isolation).
(§6) Swiss albino mice were randomly divided into 8 Groups (n=8; 4 from each gender). […] (2:10) (12 mg/kg b.w., p.o.), Group VI mice were administered 3-OH-DBP (10 mg/kg b.w., p.o.), Group VII mice were administered 3,8-(OH)2-DBP (50 mg/kg b.w., p.o.), Group VIII mice were administered [3-OH-DBP+3,8-(OH)2-DBP] (10:50) (60 mg/kg b.w., p.o.).
(§7) Results were expressed in terms of mean±SEM (n=8; 4 from each gender). Data were subjected to one way ANOVA followed by Tukey's test using GraphPad Prism 4.0 software to establish statistical significance (*p<0.05, **p<0.01, ***p<0.001, where * refers to comparison with Group I vehicle control; #p<0.05, ##p<0.01, ###p<0.001, where #refers to comparison with Group II cyclophosphamide administration; ^ap<0.05, ^aap<0.01, ^aap<0.01, where a refers to comparison of Day 7 with Day 0).

peritoneal macrophages [4] = assay: Peritoneal macrophage viability, trypan blue exclusion (Example III); format: in vivo, Swiss albino mice
Protocol: as §3, §4, §5, §6
(§8) All the animals were sacrificed under ether anesthesia and peritoneal macrophages were lavaged using ice cold phosphate buffer saline (PBS: 0.15 M NaCl; pH: 7.4). After centrifugation (3000 rpm×10 min) at 4° C., pellets were re-suspended in PBS and cell viability was confirmed by trypan blue exclusion assay.
as §7

peritoneal macrophages [5] = assay: NBT reduction of peritoneal macrophages (Example III); format: in vivo, Swiss albino mice; details: for NBT reduction compared with cyclophosphamide treated mice: 3,8-(OH)2-DBP 50 mg/kg, combined 12 and 60 mg/kg; for NBT reduction compared with vehicle control: cyclophosphamide, 3-OH-DBP 2 and 10 mg/kg, combined 12 mg/kg
Protocol: as §3, §4, §5, §6, §8
Preparation of NBT solution: 0.2% NBT (nitroblue tetrazolium) in PBS (pH 7.4), 5% dextrose and HBSS. These three solutions were mixed in 6:2:4 ratios.
0.5 ml of NBT solution was added to 0.5 ml of peritoneal macrophages (1×10^6 cells/ml) in micro-centrifuge tube. This mixture was incubated at 37° C. for 2 hours. The cell suspension was centrifuged at 2000 rpm for 10 minutes. Supernatants were discarded and pellets were re-suspended in 1 ml of DMSO. The tubes were kept in boiling water bath for 10 minutes and then cooled and centrifuged at 2000 rpm for 10 minutes. The supernatants were collected and absorbance was measured at 515 nm.
as §7

splenocytes [6] = assay: Splenocyte viability, trypan blue exclusion (Example III); format: in vivo, Swiss albino mice; details: for % Viability Day7, splenocyte viability: Day 7
Protocol: as §3, §4, §5, §6
Spleens were collected and single cell suspension was prepared by mincing and tapping the spleen fragments on stainless steel 200-mesh in ice cold phosphate buffer saline (PBS: 0.15M NaCl; pH: 7.4). Cell suspensions were centrifuged at 2000 rpm for 10 minutes.
as §7

[7] = female mice, 3-OH-DBP 2 and 10 mg/kg, 3,8-(OH)2-DBP 10 and 50 mg/kg, combined 12 and 60 mg/kg
[8] = female mice, 10 mg/kg p.o. + cyclophosphamide 250 mg/kg i.p.
[9] = female mice, 50 mg/kg p.o. + cyclophosphamide 250 mg/kg i.p.
[10] = male mice, 3-OH-DBP 10 mg/kg, 3,8-(OH)2-DBP 50 mg/kg, combined 60 mg/kg
[11] = male mice, 10 mg/kg p.o. + cyclophosphamide 250 mg/kg i.p.
[12] = male mice, 50 mg/kg p.o. + cyclophosphamide 250 mg/kg i.p.

## O=c1oc2cc(OC3OC(CO)C(O)C(O)C3O)ccc2c2ccc(OC3OC(CO)C(O)C(O)C3O)cc12 [3,8-(OH)2-DBP glycoside, 3,8-di-(O-D-Glucopyranosyl)-Dibenzo-alpha-pyrone]
Peritoneal macrophages [1]
  OD (515 nm), NBT reduction assay in peritoneal macrophages: 0.153 ± 0.013
  improvement in NBT reduction capacity: moderate (p<0.05) improvement
Splenocytes [2]
  % Cell Viability of splenocytes: 58.58 ± 4.49%
Swiss albino mice
  Cyclophosphamide-induced immunosuppression (conclusion): rescued

## O=c1oc2cc(O)ccc2c2ccc(O)cc12 [3,8-(OH)2-DBP, 3,8-dihydroxy-dibenzo-alpha-pyrone]
Peritoneal macrophages [1]
  OD (515 nm), NBT reduction assay in peritoneal macrophages: 0.144 ± 0.010^
Splenocytes [2]
  % Cell Viability of splenocytes: 54.90 ± 5.01%
[3]
  body weight Day 7 in comparison to Day 0: significantly (p<0.05) decreased
  feed intake Day 7 in comparison to Day 0: significantly (p<0.05, p<0.01) decreased
  feed intake compared to vehicle control: significantly (p<0.05, p<0.01) decreased
  water intake compared with cyclophosphamide treated mice: significantly (p<0.001) decreased
  water intake compared with vehicle control: significantly (p<0.001) decreased
  water intake compared with vehicle control and cyclophosphamide treated mice: significantly (p<0.05, p<0.001) decreased
Peritoneal macrophages [4]; [7]
  peritoneal macrophage viability compared with cyclophosphamide treated mice: significantly (p<0.05, p<0.01) increased
Peritoneal macrophages [4]; [8]
  % Viability Day 7, peritoneal macrophage viability: 65.78 ± 2.38** %
Peritoneal macrophages [4]; [9]
  % Viability Day 7, peritoneal macrophage viability: 75.27 ± 0.53^# %
Peritoneal macrophages [4]; [10]
  peritoneal macrophage viability compared with cyclophosphamide treated mice: significantly (p<0.05, p<0.01) increased
Peritoneal macrophages [4]; [11]
  % Viability Day 7, peritoneal macrophage viability: 60.34 ± 1.84%
Peritoneal macrophages [4]; [12]
  % Viability Day 7, peritoneal macrophage viability: 70.91 ± 1.24# %
Peritoneal macrophages [4]; male mice, cyclophosphamide, 3-OH-DBP 2 mg/kg, 3,8-(OH)2-DBP 10 mg/kg
  peritoneal macrophage viability compared with vehicle control: significantly (p<0.05) decreased
Peritoneal macrophages [5]; female mice, 3-OH-DBP 10 mg/kg
  NBT reduction compared with cyclophosphamide treated mice: significantly (p<0.05, p<0.01, p<0.001) increased
Peritoneal macrophages [5]; [8]
  O.D. (515 nm) Day 7, NBT reduction of peritoneal macrophages: 0.159 ± 0.02***
Peritoneal macrophages [5]; [9]
  O.D. (515 nm) Day 7, NBT reduction of peritoneal macrophages: 0.294 ± 0.008*,###
Peritoneal macrophages [5]; female mice, 3,8-(OH)2-DBP 10 and 50 mg/kg
  NBT reduction compared with vehicle control: significantly (p<0.05, p<0.01, p<0.001) decreased
Peritoneal macrophages [5]; male mice, NBT reduction capacity increased
  NBT reduction compared with cyclophosphamide treated mice: significantly (p<0.05, p<0.01, p<0.001) reversed
Peritoneal macrophages [5]; [11]
  O.D (515 nm) Day 7, NBT reduction of peritoneal macrophages: 0.294 ± 0.04499***
Peritoneal macrophages [5]; [12]
  O.D (515 nm) Day 7, NBT reduction of peritoneal macrophages: 0.476 ± 0.07172##
Peritoneal macrophages [5]; male mice, 3,8-(OH)2-DBP 10 mg/kg
  NBT reduction compared with vehicle control: significantly (p<0.01, p<0.001) decreased
Splenocytes [6]; [7]
  splenocyte viability compared with cyclophosphamide treated mice: significantly (p<0.05, p<0.01, p<0.001) increased
Splenocytes [6]; [8]
  % Viability Day7, splenocyte viability: 89.50 ± 2.30# %
Splenocytes [6]; [9]
  % Viability Day7, splenocyte viability: 90.87 ± 1.98## %
Splenocytes [6]; male mice, 50 mg/kg 3,8-(OH)2-DBP (Group VII), 60 mg/kg DBP combination (Group VIII)
  restoration of splenocyte viability: restored
Splenocytes [6]; [10]
  splenocyte viability compared with cyclophosphamide treated mice: significantly higher
Splenocytes [6]; [11]
  % Viability Day7, splenocyte viability: 68.69 ± 2.21*** %
Splenocytes [6]; [12]
  % Viability Day7, splenocyte viability: 90.14 ± 0.36## %
Splenocytes [6]; male mice, cyclophosphamide, 2 mg/kg 3-OH-DBP, 10 mg/kg 3,8-(OH)2-DBP, 12 mg/kg combined
  splenocyte viability compared with vehicle control: similarly decreased

## O=c1oc2cc(OC3OC(CO)C(O)C(O)C3O)ccc2c2ccccc12 [3-OH-DBP glycoside, 3-O-D-Glucopyranosyl-Dibenzo-alpha-pyrone]
Peritoneal macrophages [1]
  OD (515 nm), NBT reduction assay in peritoneal macrophages: 0.168 ± 0.014
  improvement in NBT reduction capacity: highest level of improvement
Splenocytes [2]
  % Cell Viability of splenocytes: 60.39 ± 5.85 %
Splenocytes [2]; 10 mg/kg p.o. in cyclophosphamide-treated mice
  improvement in splenocyte viability: significant improvement
Swiss albino mice
  Cyclophosphamide-induced immunosuppression (conclusion): rescued

Reference: patent US20220098228A1, “METHODS AND COMPOSITIONS FOR IMPROVING THE IMMUNE SYSTEM AND PROVIDING IMMUNO-PROTECTION” (Natreon, Inc., priority 2020, published 2022)
